In patent publication US20030087395A1, “Cardiotrophin-like cytokine” (Human Genome Sciences, Inc., priority 1997, published 2003):

Tests used:
[1] = test system: primary neuronal cultures (sympathetic neuron counts); test: Neuron counts in primary neuronal cultures; assay type: cell-based; conditions: counted 48 to 72 hours post-treatment; four fields in three independent cultures, averaged
Method: (§1) Primary cardiomyocytes, primary neuronal cultures, or other cells are plated at a low density and cultured using standard culturing techniques. […] Cultures are evaluated at a point between 48 and 72 hours post-treatment by counting the number of cells in four non-overlapping fields in three independent cultures and averaging the results.

[2] = test system: Primary cardiomyocytes; test: Cardiac myocyte hypertrophy, cell counts in culture; assay type: cell-based; conditions: counted 48 to 72 hours post-treatment; four fields in three independent cultures, averaged
Method: as §1

[3] = test system: STATS; conditions: numbers of the STATs activated; adapted from Schidler and Darnell review; cited from earlier work
[4] = test system: GAS or ISRE; conditions: element bound; adapted from Schidler and Darnell review; cited from earlier work

| Molecule | No. Neurons [1] | No. Active Myocytes [2] | STATS [3] | GAS or ISRE [4] |
| --- | --- | --- | --- | --- |
| CNC[C@H](O)c1cccc(O)c1 [Phenylephrine, reference compound] | 28 | 92 | – | – |
| EGF: ligand of Receptor Tyrosine Kinases | – | – | 1,3 | GAS (IRF1) |
| GH: Growth hormone family ligand | – | – | 5 | – |
| GM-CSF: gp140 family ligand (myeloid) | – | – | 5 | GAS |
| IL-5: gp140 family ligand (myeloid) | – | – | 5 | GAS |
| IL-6: gp130 family ligand (Pleiotropic) | – | – | 1,3 | GAS |
| IL-9: g-C family ligand (lymphocytes) | – | – | 5 | GAS |
| IL-13: g-C family ligand (lymphocyte) | – | – | 6 | GAS |
| IL-15: g-C family ligand | – | – | 5 | GAS |
| PDGF | – | – | 1,3 | – |
| IL-7: g-C family ligand (lymphocytes) (protein, UniProt P13232 26-177, looked up) Interleukin-7: DCDIEGKDGKQYESVLMVSIDQLLDSMKEIGSNCLNNEFNFFKRHICDANKEGMFLFRAARKLRQFLKMNSTGDFDLHLLKVSEGTTILLNCTGQVKGRKPAALGEAQPTKSLEENKSLKEQKKLNDLCFLKRLLQEIKTCWNKILMGTKEH | – | – | 5 | GAS |
| IL-10: ligand of the IFN family in the Jaks-STATs table (protein, UniProt P22301 19-178, looked up) Interleukin-10: SPGQGTQSENSCTHFPGNLPNMLRDLRDAFSRVKTFFQMKDQLDNLLLKESLLEDFKGYLGCQALSEMIQFYLEEVMPQAENQDPDIKAHVNSLGENLKTLRLRLRRCHRFLPCENKSKAVEQVKNAFNKLQEKGIYKAMSEFDIFINYIEAYMTMKIRN | – | – | 1,3 | – |
| G-CSF: gp130 family ligand (Pleiotropic) (protein, UniProt P09919 31-207, looked up) Granulocyte …: TPLGPASSLPQSFLLKCLEQVRKIQGDGAALQEKLVSECATYKLCHPEELVLLGHSLGIPWAPLSSCPSQALQLAGCLSQLHSGLFLYQGLLQALEGISPELGPTLDTLQLDVADFATTIWQQMEELGMAPALQPTQGAMPAFASAFQRRAGGVLVASHLQSFLEVSYRVLRHLAQP | – | – | 1,3 | – |
| CNTF: gp130 family ligand (Pleiotropic) (protein, homo sapiens) MAFTEHSPLTPHRRDLCSRSIWLARKIRSDLTALTESYVKHQGLNKNINLDSADGMPVASTDQWSELTEAERLQENLQAYRTFHVLLARLLEDQQVHFTPTEGDFHQAIHTLLLQVAAFAYQIEELMILLEYKIPRNEADGMPINVGDGGLFEKKLWGLKVLQELSQWTVRSIHDLRFISSHQTGIPARGSHYIANNKKM | – | – | 1,3 | – |
| OnM: gp130 family ligand (Pleiotropic) (protein, UniProt P13725 26-221, looked up) Oncostatin-M: AAIGSCSKEYRVLLGQLQKQTDLMQDTSRLLDPYIRIQGLDVPKLREHCRERPGAFPSEETLRGLGRRGFLQTLNATLGCVLHRLADLEQRLPKAQDLERSGLNIEDLEKLQMARPNILGLRNNIYCMAQLLDNSDTAEPTKAGRGASQPPTPTPASDAFQRKLEGCRFLHGYHRFMHSVGRVFSKWGESPNRSRR | – | – | 1,3 | – |
| IL-11: gp130 family ligand (Pleiotropic) (protein, UniProt P20809 22-199, looked up) Interleukin-11: PGPPPGPPRVSPDPRAELDSTVLLTRSLLADTRQLAAQLRDKFPADGDHNLDSLPTLAMSAGALGALQLPGVLTRLRADLLSYLRHVQWLRRAGGSSLKTLEPELGTLQARLDRLLRRLQLLMSRLALPQPPPDPPAPPLAPPSSAWGGIRAAHAILGGLHLTLDWAVRGLLLLKTRL | – | – | 1,3 | – |
| IL-4: g-C family ligand (lymph/myeloid) (protein, UniProt P05112 25-153, looked up) Interleukin-4: HKCDITLQEIIKTLNSLTEQKTLCTELTVTDIFAASKNTTEKETFCRAATVLRQFYSHHEKDTRCLGATAQQFHRHKQLIRFLKRLDRNLWGLAGLNSCPVKEANQSTLENFLERLKTIMREKYSKCSS | – | – | 6 | GAS |
| IL-12: gp130 family ligand (Pleiotropic) (protein, UniProt P29459 23-219; P29460 23-328, looked up) Interleukin-12 subunit alpha: RNLPVATPDPGMFPCLHHSQNLLRAVSNMLQKARQTLEFYPCTSEEIDHEDITKDKTSTVEACLPLELTKNESCLNSRETSFITNGSCLASRKTSFMMALCLSSIYEDLKMYQVEFKTMNAKLLMDPKRQIFLDQNMLAVIDELMQALNFNSETVPQKSSLEEPDFYKTKIKLCILLHAFRIRAVTIDRVMSYLNAS Interleukin-12 subunit beta: IWELKKDVYVVELDWYPDAPGEMVVLTCDTPEEDGITWTLDQSSEVLGSGKTLTIQVKEFGDAGQYTCHKGGEVLSHSLLLLHKKEDGIWSTDILKDQKEPKNKTFLRCEAKNYSGRFTCWWLTTISTDLTFSVKSSRGSSDPQGVTCGAATLSAERVRGDNKEYEYSVECQEDSACPAAEESLPIEVMVDAVHKLKYENYTSSFFIRDIIKPDPPKNLQLKPLKNSRQVEVSWEYPDTWSTPHSYFSLTFCVQVQGKSKREKKDRVFTDKTSATVICRKNASISVRAQDRYYSSSWSEWASVPCS | – | – | 1,3 | – |
| CSF-1: ligand of Receptor Tyrosine Kinases (protein, UniProt P09603 33-554, looked up) Macrophage colony-stimulating …: EEVSEYCSHMIGSGHLQSLQRLIDSQMETSCQITFEFVDQEQLKDPVCYLKKAFLLVQDIMEDTMRFRDNTPNAIAIVQLQELSLRLKSCFTKDYEEHDKACVRTFYETPLQLLEKVKNVFNETKNLLDKDWNIFSKNCNNSFAECSSQDVVTKPDCNCLYPKAIPSSDPASVSPHQPLAPSMAPVAGLTWEDSEGTEGSSLLPGEQPLHTVDPGSAKQRPPRSTCQSFEPPETPVVKDSTIGGSPQPRPSVGAFNPGMEDILDSAMGTNWVPEEASGEASEIPVPQGTELSPSRPGGGSMQTEPARPSNFLSASSPLPASAKGQQPADVTGTALPRVGPVRPTGQDWNHTPQKTDHPSALLRDPPEPGSPRISSLRPQGLSNPSTLSAQPQLSRSHSSGSVLPLGELEGRRSTRDRRSPAEPEGGPASEGAARPLPRFNSVPLTDTGHERQSEGSFSPQLQESVFHLLVPSVILVLLAVGGLLFYRWRRRSHQEPQRADSPLEQPEGSPLTQDDRQVELPV | – | – | 1,3 | GAS (not |
